We go through one compound from publication PMC2939063, “In Vitro and In Vivo Studies of the Trypanocidal Properties of WRR-483 against Trypanosoma cruzi” (PLoS Neglected Tropical Diseases, 2010).

The structures appear in SMILES notation.

One experiment addresses T1, Rhodesain (Trypanosoma brucei rhodesiense, UniProt Q95PM0).
T1 construct: made in house
Description: Rhodesain enzyme assay (acetate buffer pH 5.5, Z-Phe-Arg-AMC). The class given is biochemical, T. brucei. The procedure: (§1) Cruzain[27],[28], rhodesain [29], and tbcatB [30] were recombinantly expressed as described previously. TbcatB assays were performed as described previously.[31] Cruzain (2 nM) or rhodesain (3 nM) was incubated with 0.5 to 10 µM inhibitor concentration in 100 mM sodium acetate at pH 5.5, containing 5 mM DTT (buffer A) for 5 min at room temperature. Then buffer A containing Z-Phe-Arg-AMC (Bachem, K M = 1 µM) was added to enzyme inhibitor to give 20 µM substrate concentration in 200 µL, and the increase in fluorescence (excitation at 355 nm and emission at 460 nm) was followed with an automated microtiter plate spectrofluorometer (Molecular Devices, Flex station). Inhibitor stock solutions were prepared at 20 mM in DMSO, and serial dilutions were made in DMSO (0.7% DMSO in assay). Controls were performed using enzyme alone and enzyme with DMSO. IC50 values were determined graphically using inhibitor concentrations in the linear portion of a plot of inhibition versus log[I] (seven concentrations tested with at least two in the linear range).
(§2) Inhibitor dilutions which produce simple exponential progress curves over a wide range of k obs, were used to determine kinetic parameters. The value of k obs, the rate constant for loss of enzyme activity, was determined from an equation for pseudo first order dynamics using Prism 4.0 (GraphPad). When k obs varied linearly with inhibitor concentration, k ass was determined by linear regression analysis. If the variation was hyperbolic, indicating saturation inhibition kinetics, k inact and K i were determined from an equation describing a two-step irreversible inhibitor mechanism [k obs = k inact [I]o/([I]o+Ki* (1+[S]o/K M))] and non-linear regression analysis Prism 4.0.[32] All values were corrected for substrate concentration.

Another experiment concerns the target T2, tbcatB (Trypanosoma brucei, UniProt Q6R7Z5).
T2 construct: made in house
T2 sequence (Q6R7Z5 23-340): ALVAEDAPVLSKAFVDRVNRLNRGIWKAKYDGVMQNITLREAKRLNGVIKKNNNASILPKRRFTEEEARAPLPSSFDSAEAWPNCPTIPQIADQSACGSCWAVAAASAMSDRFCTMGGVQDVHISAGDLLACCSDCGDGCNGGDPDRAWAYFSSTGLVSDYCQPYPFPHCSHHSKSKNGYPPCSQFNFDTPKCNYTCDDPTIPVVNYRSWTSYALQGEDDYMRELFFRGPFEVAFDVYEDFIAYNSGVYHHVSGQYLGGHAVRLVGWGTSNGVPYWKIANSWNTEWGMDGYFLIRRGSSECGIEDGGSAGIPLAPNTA
The experiment is described as follows: tbcatB enzyme assay. The class given is biochemical. As to the method:
as §1, §2

The test system of experiment [1] is T. cruzi infection in BESM cells. Description: Dose-response against T. cruzi infection in BESM cells. The following applies: Trypanosoma cruzi, 72 h. The experiment is classed as cell-based, Trypanosoma cruzi CA-I/72. The procedure:
Monolayers were then infected with 1000 trypomastigotes/well of CA-I/72 T. cruzi for 2 h at 37°C. […] Cultures were then incubated for 72 h at 37°C in a humidified atmosphere with 5% CO2. Cultures were next fixed in 4% fresh paraformaldehyde in PBS, stained with DAPI, and counted under a fluorescence microscope (400×). Mean numbers of parasites per cell (±SE) were calculated as previously reported (n = 3-4 per concentration). Controls consisted of untreated wells and cultures similarly treated with 10 μM […] and 0.1 μM posaconazole.

The target of the next experiment is T3, Cathepsin B (Homo sapiens, UniProt P07858).
T3 construct: Reaction Biology Corp (screening service)
The experiment is described as follows: Protease inhibition profiling (Reaction Biology Corp): Cathepsin B. The class given is biochemical.

A further experiment concerns the target T4, Cathepsin C (Homo sapiens, UniProt P53634).
T4 construct: Reaction Biology Corp (screening service)
The experiment is described as follows: Protease inhibition profiling (Reaction Biology Corp): Cathepsin C. The class given is biochemical.

The target in a further experiment is T5, Cathepsin L (Homo sapiens, UniProt P07711).
T5 construct: Reaction Biology Corp (screening service)
T5 sequence (P07711 114-333, species assumed): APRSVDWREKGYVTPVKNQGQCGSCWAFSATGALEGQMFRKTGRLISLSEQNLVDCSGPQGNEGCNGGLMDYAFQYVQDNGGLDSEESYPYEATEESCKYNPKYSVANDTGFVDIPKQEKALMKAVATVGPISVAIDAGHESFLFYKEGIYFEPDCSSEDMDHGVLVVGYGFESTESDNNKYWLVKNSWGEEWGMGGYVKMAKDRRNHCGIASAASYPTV
The experiment is described as follows: Protease inhibition profiling (Reaction Biology Corp): Cathepsin L. The experiment is classed as biochemical.

Another experiment concerns the target T6, Cathepsin V (Homo sapiens, UniProt O60911).
T6 construct: Reaction Biology Corp (screening service)
Description: Protease inhibition profiling (Reaction Biology Corp): Cathepsin V. The class given is biochemical. To be noted: read-out: IC50, Cathepsin V.

The target of another experiment is T7, calpain-1 (Homo sapiens, UniProt P07384).
T7 construct: Reaction Biology Corp (screening service)
T7 sequence (P07384 1-714): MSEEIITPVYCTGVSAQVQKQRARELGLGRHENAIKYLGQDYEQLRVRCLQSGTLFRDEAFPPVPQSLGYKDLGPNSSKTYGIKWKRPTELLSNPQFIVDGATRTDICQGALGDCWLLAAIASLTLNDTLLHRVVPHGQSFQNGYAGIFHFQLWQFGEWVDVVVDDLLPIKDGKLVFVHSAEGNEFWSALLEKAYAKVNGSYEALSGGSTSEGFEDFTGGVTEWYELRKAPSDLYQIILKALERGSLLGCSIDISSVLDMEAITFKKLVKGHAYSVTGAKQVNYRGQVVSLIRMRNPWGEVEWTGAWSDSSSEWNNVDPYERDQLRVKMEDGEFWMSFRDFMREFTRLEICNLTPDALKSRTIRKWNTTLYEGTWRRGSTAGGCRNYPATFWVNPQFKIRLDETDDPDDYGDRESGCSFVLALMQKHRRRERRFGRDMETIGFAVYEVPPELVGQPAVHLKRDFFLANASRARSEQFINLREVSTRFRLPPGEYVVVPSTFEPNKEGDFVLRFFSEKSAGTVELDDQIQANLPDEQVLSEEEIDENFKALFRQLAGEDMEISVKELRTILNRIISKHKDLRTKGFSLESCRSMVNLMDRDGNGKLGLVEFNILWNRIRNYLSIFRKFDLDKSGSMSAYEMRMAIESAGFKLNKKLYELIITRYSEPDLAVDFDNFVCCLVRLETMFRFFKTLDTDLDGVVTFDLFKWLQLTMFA
T7 sequence (P04632 1-268 partner): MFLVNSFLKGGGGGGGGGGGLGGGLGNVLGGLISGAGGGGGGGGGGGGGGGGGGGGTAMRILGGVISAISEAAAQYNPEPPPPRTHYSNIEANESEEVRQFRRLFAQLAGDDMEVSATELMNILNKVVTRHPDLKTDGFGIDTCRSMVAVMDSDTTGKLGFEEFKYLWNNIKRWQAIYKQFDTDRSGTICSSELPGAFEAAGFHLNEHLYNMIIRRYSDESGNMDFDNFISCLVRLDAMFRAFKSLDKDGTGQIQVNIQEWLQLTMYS
The experiment is described as follows: Protease inhibition profiling (Reaction Biology Corp): calpain-1. The class given is biochemical. The following applies: panel of 70 proteases.

The target in another experiment is T8, cathepsin H (Homo sapiens, UniProt P09668).
T8 construct: Reaction Biology Corp (screening service)
T8 sequence (P09668 98-335): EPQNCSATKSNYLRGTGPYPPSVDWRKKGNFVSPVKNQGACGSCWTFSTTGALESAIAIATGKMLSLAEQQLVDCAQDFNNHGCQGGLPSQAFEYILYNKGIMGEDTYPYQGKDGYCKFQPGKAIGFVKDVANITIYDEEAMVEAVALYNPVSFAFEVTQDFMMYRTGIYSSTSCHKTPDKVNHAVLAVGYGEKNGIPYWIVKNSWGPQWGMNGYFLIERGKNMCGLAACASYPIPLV
The experiment is described as follows: Protease inhibition profiling (Reaction Biology Corp): cathepsin H. To be noted: panel of 70 proteases. The experiment is classed as biochemical.

The subject of another experiment is EhCP1. The following applies: cited from earlier work.

T1 sequence (Q95PM0 entry or part of it): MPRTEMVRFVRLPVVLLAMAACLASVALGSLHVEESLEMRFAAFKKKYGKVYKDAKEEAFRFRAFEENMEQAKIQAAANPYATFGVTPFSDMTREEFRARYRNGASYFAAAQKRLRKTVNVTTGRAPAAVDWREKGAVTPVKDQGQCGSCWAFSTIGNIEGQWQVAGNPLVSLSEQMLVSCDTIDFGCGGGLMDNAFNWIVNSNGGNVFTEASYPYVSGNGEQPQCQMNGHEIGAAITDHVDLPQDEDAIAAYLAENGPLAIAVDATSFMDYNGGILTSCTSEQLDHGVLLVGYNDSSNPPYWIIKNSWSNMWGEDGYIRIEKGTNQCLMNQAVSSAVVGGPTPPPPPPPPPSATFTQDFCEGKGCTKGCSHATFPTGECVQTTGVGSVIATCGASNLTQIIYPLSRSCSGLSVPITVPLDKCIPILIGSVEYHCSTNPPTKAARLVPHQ
T4 sequence (P53634 25-463, species assumed): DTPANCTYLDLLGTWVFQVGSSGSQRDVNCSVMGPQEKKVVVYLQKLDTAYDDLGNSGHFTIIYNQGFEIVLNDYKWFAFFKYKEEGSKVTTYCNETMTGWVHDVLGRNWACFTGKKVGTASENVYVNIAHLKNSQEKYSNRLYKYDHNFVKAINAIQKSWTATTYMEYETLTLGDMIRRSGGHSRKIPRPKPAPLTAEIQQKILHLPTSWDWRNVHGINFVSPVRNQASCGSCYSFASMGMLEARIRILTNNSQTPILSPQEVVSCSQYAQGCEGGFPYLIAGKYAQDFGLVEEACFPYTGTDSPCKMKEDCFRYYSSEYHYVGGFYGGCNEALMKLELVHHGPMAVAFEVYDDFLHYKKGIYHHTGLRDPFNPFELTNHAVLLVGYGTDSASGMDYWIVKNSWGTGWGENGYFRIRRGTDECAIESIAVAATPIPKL
T6 sequence (O60911 114-334, species assumed): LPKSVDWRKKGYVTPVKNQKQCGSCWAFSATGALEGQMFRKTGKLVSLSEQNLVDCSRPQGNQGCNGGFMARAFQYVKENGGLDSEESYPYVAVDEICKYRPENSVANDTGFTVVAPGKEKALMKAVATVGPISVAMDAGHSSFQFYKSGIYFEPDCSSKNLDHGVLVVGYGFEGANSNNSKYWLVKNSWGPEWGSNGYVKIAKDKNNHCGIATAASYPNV

One may read the inhibition as the change of the read-out against control, counted positive when it falls. The term EC50 denotes the midpoint of the concentration-response curve. Read a high EC50 as lower potency in that assay. One may read the IC50 as the point on the concentration scale where inhibition reaches its midpoint. As to `CN1CCN(C(=O)N[C@@H](CCCNC(=N)N)C(=O)N[C@H](/C=C/S(=O)(=O)c2ccccc2)CCc2ccccc2)CC1` [WRR-483], the “k obs/[I] at 1 µM, Rhodesain” value at Rhodesain (100 mM sodium acetate pH 5.5, 5 mM DTT) is reported as “No inhibition”. Besides, the inhibition of rhodesain result on Rhodesain (even at 10 µM concentration) is “no inhibition”. The “inhibition of tbcatB (in words)” value at tbcatB was “weak inhibitors”. Moreover, the inhibition at 1 µM at tbcatB (read-out: tbcatB % inhibition at 1 µM, 1 µM inhibitor) was 26%. Besides, the EC50 in experiment [1] was 0.2 µM. In addition, the IC50 was found to be 0.0039 ± 0.0001 µM at Cathepsin B, 0.007 ± 0.0009 µM at Cathepsin C, 0.053 ± 0.004 µM against Cathepsin L and 0.335 ± 0.004 µM at Cathepsin V. Besides, the “inhibition of calpain-1” value against calpain-1 is given as “no inhibition”. Moreover, the “inhibition of cathepsin H” value against cathepsin H is recorded as “no inhibition”. Moreover, in the experiment with EhCP1, the “inhibition of EhCP1” value is listed as “potent inhibitor”.
